{"source": "ChEMBL document CHEMBL5465560", "about": "“Selectivity Literature for EUbOPEN Chemogenomic Library” (2024)", "key": {"[1]": {"target": "DNA (cytosine-5)-methyltransferase 1 (Homo sapiens) (UniProt P26358)", "sequence (P26358 whole entry)": "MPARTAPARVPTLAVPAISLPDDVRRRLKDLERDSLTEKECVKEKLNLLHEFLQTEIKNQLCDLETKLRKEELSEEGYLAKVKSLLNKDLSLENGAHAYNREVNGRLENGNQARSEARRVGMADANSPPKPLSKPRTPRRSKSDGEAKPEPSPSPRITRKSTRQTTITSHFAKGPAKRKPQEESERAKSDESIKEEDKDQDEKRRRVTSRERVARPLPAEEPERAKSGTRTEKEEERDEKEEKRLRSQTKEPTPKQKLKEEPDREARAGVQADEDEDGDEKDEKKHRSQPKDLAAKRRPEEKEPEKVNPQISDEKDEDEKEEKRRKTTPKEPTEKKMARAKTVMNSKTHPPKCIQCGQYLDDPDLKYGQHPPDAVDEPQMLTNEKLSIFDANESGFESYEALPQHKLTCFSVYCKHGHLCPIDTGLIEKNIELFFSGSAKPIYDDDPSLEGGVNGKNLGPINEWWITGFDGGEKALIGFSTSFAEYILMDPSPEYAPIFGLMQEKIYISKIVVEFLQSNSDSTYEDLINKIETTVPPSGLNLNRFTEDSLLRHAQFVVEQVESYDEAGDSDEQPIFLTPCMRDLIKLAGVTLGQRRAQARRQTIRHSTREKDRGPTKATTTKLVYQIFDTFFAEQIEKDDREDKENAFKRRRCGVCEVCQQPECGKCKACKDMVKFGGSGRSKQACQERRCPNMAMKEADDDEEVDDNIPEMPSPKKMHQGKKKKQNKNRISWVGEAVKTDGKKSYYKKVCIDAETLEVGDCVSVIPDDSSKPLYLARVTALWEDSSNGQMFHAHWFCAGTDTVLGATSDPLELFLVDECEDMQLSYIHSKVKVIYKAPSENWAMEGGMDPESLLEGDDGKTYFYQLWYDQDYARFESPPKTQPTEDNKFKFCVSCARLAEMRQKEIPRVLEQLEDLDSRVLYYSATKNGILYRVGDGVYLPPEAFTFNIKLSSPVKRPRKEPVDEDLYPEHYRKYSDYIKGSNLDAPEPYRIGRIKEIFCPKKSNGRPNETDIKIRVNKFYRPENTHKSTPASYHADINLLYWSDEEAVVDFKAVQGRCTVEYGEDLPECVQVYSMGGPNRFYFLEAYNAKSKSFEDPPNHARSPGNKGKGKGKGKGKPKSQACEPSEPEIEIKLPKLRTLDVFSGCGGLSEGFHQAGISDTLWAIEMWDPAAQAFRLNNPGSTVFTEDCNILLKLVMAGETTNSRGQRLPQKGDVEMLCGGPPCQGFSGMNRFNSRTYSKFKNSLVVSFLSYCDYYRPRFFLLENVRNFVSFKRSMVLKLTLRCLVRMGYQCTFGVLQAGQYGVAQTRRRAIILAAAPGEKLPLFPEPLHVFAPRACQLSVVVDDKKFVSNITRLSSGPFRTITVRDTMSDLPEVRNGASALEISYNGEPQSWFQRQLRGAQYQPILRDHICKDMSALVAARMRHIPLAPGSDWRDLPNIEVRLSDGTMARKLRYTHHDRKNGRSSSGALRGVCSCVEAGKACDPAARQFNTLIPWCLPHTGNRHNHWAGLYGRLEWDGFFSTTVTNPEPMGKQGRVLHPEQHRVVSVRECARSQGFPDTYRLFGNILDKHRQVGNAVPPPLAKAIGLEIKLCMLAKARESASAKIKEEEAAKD", "conditions": "at 10 µM"}, "[2]": {"target": "T1, Myosin light chain kinase family member 4 (Homo sapiens) (UniProt Q86YV6)", "T1 sequence (whole entry)": "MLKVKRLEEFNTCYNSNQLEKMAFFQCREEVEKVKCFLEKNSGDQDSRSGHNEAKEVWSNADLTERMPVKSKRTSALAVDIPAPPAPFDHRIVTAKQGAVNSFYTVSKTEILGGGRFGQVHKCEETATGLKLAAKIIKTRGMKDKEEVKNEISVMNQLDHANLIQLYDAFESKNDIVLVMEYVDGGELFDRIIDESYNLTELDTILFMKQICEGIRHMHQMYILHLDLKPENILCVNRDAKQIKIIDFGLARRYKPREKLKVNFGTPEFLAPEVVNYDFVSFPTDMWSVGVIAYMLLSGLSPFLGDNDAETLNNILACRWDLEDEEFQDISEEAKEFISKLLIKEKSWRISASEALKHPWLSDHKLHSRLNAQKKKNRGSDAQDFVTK", "assay": "Selectivity interaction (KinomeScan (DiscoverX)) EUB0001550a MYLK4", "conditions": "at 1 µM"}, "[3]": {"target": "T2, Aurora kinase C (Homo sapiens) (UniProt Q9UQB9)", "T2 sequence (whole entry)": "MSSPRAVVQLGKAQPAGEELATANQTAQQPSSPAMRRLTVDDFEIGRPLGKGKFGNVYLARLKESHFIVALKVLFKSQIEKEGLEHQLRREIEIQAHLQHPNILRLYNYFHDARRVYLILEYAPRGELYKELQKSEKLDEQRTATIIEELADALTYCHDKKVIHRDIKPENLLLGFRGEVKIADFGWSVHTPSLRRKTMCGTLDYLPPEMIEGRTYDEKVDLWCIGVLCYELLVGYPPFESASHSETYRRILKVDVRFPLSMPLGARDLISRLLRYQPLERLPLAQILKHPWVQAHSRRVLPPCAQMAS", "assay": "Selectivity interaction (ActivX KiNativ screen (kinase selectivity in THP-1 cell lysates)) EUB0000639a AURKC", "type": "subcellular", "conditions": "lysate"}, "[4]": {"target": "T3, Peripheral plasma membrane protein CASK (Homo sapiens) (UniProt O14936)", "T3 sequence (whole entry)": "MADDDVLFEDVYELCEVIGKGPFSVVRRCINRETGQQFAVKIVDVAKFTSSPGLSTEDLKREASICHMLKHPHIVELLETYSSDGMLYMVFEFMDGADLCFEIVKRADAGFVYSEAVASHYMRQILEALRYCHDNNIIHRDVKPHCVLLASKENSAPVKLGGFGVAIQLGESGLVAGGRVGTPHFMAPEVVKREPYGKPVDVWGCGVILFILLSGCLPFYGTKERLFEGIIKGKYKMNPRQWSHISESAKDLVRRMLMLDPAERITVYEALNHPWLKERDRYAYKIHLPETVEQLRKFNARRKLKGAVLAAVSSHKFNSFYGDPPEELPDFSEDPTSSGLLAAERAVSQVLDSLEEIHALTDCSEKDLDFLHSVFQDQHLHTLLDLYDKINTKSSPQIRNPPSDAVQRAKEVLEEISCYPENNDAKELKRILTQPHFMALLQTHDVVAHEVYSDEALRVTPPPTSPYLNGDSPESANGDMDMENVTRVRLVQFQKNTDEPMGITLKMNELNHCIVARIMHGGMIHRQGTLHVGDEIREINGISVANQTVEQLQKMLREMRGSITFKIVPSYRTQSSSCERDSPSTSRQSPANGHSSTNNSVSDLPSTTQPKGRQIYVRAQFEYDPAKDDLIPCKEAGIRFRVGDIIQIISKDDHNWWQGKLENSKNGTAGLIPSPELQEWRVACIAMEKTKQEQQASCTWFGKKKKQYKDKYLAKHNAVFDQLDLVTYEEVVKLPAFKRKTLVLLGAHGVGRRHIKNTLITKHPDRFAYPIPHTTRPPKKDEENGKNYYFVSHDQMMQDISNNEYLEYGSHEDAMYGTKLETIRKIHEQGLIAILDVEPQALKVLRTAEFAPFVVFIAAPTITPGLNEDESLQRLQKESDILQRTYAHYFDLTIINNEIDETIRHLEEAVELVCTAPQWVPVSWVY", "assay": "Selectivity interaction (Ambit KINOMEscan and KiNATiv profiling in Jurkat cells) EUB0000090b CASK", "type": "cell-based", "conditions": "at 1 µM"}, "[5]": {"target": "T4, Serine/threonine-protein kinase STK11 (Homo sapiens) (UniProt Q15831)", "T4 sequence (whole entry)": "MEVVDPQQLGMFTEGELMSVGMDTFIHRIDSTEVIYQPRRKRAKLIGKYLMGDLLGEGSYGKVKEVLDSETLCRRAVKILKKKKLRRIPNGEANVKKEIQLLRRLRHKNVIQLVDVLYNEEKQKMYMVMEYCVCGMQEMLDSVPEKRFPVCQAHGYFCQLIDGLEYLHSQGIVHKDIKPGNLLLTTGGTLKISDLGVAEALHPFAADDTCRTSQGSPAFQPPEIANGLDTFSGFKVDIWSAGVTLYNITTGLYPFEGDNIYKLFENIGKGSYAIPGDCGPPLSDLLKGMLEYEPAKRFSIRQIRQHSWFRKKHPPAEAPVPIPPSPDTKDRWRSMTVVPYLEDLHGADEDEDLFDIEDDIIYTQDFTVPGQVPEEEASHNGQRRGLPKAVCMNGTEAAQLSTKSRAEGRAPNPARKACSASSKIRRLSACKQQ", "assay": "Selectivity interaction (Ambit KINOMEscan and KiNATiv profiling in Jurkat cells) EUB0000090b STK11", "type": "cell-based", "conditions": "at 1 µM"}, "[6]": {"target": "Tyrosine-protein kinase Fer (Homo sapiens) (UniProt P16591)", "sequence (P16591 whole entry, looked up)": "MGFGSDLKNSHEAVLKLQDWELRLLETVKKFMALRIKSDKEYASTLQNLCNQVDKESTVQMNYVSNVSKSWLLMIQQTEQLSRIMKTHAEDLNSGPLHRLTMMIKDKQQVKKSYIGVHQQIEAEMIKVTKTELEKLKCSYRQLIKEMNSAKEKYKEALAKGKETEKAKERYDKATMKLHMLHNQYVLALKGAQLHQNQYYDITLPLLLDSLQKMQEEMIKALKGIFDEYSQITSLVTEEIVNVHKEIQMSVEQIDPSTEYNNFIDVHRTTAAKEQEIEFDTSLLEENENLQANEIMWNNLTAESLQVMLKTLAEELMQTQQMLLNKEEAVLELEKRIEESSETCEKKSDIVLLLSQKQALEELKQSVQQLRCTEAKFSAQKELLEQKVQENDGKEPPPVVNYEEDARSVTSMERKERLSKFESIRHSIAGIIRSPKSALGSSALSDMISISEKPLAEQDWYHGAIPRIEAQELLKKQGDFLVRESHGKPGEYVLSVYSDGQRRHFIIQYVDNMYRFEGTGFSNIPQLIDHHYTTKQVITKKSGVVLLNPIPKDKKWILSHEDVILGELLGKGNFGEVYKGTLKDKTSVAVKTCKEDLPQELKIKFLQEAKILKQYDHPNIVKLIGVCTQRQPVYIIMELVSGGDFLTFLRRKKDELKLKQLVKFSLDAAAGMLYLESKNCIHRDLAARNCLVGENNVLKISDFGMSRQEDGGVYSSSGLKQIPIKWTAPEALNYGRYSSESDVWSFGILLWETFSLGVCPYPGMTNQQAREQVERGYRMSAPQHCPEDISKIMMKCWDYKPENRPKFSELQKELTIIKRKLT", "assay": "Selectivity interaction (KinomeScan (DiscoverX)) EUB0000607a FER", "conditions": "at 10 µM"}}, "data": [{"smiles": "CNCCN1CCC(c2cc(CN(C)C(=O)c3cccc(Oc4ccccc4)c3)ccn2)CC1", "values": [{"measurement": "% activity", "setting": "[1]", "result": "> 90", "unit": "%"}]}, {"smiles": "CN(C)CC#Cc1ccc2[nH]c3c(c2c1)-c1nc(N)ncc1CCC3", "values": [{"measurement": "% of control", "setting": "[2]", "result": 1.8, "unit": "%"}]}, {"smiles": "CC[C@@H]1[C@H](F)C(=O)N[C@@H]1COc1nccc2cc(C(N)=O)c(OC)cc12", "note": "[ZIMLOVISERTIB]", "values": [{"measurement": "% of inhibition", "setting": "[3]; at 0.01 µM", "result": 4.9, "unit": "%"}, {"measurement": "% of inhibition", "setting": "[3]; at 0.04 µM", "result": -1.3, "unit": "%"}, {"measurement": "% of inhibition", "setting": "[3]; at 0.2 µM", "result": -1, "unit": "%"}, {"measurement": "% of inhibition", "setting": "[3]; at 1 µM", "result": 20, "unit": "%"}, {"measurement": "% of inhibition", "setting": "[3]; at 5 µM", "result": 64.4, "unit": "%"}]}, {"smiles": "CN(C)C/C=C/C(=O)Nc1ccc(C(=O)N2CCCC(Nc3ncc(Cl)c(-c4c[nH]c5ccccc45)n3)C2)cc1", "note": "(stereo not given)", "values": [{"measurement": "% of control", "setting": "[4]", "result": 90, "unit": "%"}, {"measurement": "% of control", "setting": "[5]", "result": 94, "unit": "%"}]}, {"smiles": "CNC(=O)Nc1ccc(-c2nc(N3CC4CCC(C3)O4)c3cnn(C4CCC5(CC4)OCCO5)c3n2)cc1", "values": [{"measurement": "% of control", "setting": "[6]", "result": 100, "unit": "%"}]}]}
